In ChEMBL document CHEMBL1201862, “PubChem BioAssay data set” (2004):
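Method: 48-hour compound exposure of cells in 96-well plates, five concentrations, linear interpolation of endpoints. GI50 = concentration required for 50% inhibition of growth.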 Active and inactive are the calls of the source. Rule as the data show it: active = GI50 up to about 1.1 µM and inactive = higher.

Experiments:
Test in all cases: NCI-60 cell line screen, 48 h
786-0 = tested on: 786-0
EKVX = tested on: EKVX
HOP-92 = tested on: HOP-92
HT-29 = tested on: HT-29
KM12 = tested on: KM12
MDA-MB-435 = tested on: MDA-MB-435
NCI-H23 = tested on: NCI-H23
NCI-H522 = tested on: NCI-H522
OVCAR-3 = tested on: OVCAR-3
OVCAR-8 = tested on: OVCAR-8
RPMI-8226 = tested on: RPMI-8226
RXF 393 = tested on: RXF 393
SF-295 = tested on: SF-295
SK-MEL-28 = tested on: SK-MEL-28
SNB-19 = tested on: SNB-19
SNB-75 = tested on: SNB-75
SW-620 = tested on: SW-620
T47D = tested on: T47D
UACC-62 = tested on: UACC-62
SK-MEL-5 = tested on: SK-MEL-5

Measured: GI50

c1ccc2sc(SCCSc3nc4ccccc4s3)nc2c1
inactive: 786-0 > 100 µM | EKVX > 100 µM | HOP-92 > 100 µM | HT-29 > 100 µM | KM12 52.4 µM | MDA-MB-435 > 100 µM | NCI-H23 > 100 µM | NCI-H522 > 100 µM | OVCAR-3 > 100 µM | OVCAR-8 > 100 µM | RPMI-8226 > 100 µM | RXF 393 > 100 µM | SF-295 > 100 µM | SK-MEL-28 > 100 µM | SNB-19 > 100 µM | SNB-75 74.3 µM | SW-620 > 100 µM | T47D > 100 µM | UACC-62 > 100 µM

CC(C)(C)C1CCC2(CC1)CCN(CCCN1CCOCC1)CC2
inactive: 786-0 20.2 µM | EKVX > 96.4 µM | HOP-92 17.7 µM | HT-29 6.5 µM | KM12 > 56 µM | MDA-MB-435 28.2 µM | NCI-H23 52.1 µM | NCI-H522 > 51.1 µM | OVCAR-3 > 100 µM | OVCAR-8 > 81.1 µM | RPMI-8226 17.5 µM | RXF 393 27.4 µM | SF-295 > 47.1 µM | SK-MEL-28 16.9 µM | SK-MEL-5 8.05 µM | SNB-19 > 71.4 µM | SNB-75 24.8 µM | SW-620 > 42.8 µM | T47D 42.9 µM | UACC-62 8.91 µM

Cc1cc2c(O)c(c1)COCc1cc(C)cc(c1O)COCc1cc(C)cc(c1O)COC2
inactive: 786-0 47.1 µM | EKVX > 100 µM | HOP-92 > 100 µM | HT-29 95.3 µM | KM12 > 100 µM | MDA-MB-435 > 100 µM | NCI-H23 > 100 µM | NCI-H522 49.2 µM | OVCAR-3 > 100 µM | OVCAR-8 50.1 µM | RPMI-8226 > 100 µM | RXF 393 > 100 µM | SF-295 > 100 µM | SK-MEL-28 > 100 µM | SNB-19 > 100 µM | SNB-75 80.5 µM | SW-620 > 100 µM | T47D > 100 µM | UACC-62 > 100 µM

CC(=O)O[C@@H]1C(=O)N(c2ccccc2)[C@@H]1c1cc2ccccc2c2ccccc12
inactive: 786-0 42.2 µM | EKVX 40.6 µM | HOP-92 20.8 µM | HT-29 29 µM | KM12 20.3 µM | MDA-MB-435 16.8 µM | NCI-H23 20.2 µM | NCI-H522 3.01 µM | OVCAR-3 23.2 µM | OVCAR-8 24.5 µM | RPMI-8226 21.3 µM | RXF 393 15 µM | SF-295 38 µM | SK-MEL-28 56 µM | SK-MEL-5 23.2 µM | SNB-19 73.3 µM | T47D 18.7 µM | UACC-62 22.8 µM

Cc1cc(Cl)cc2c1NC(=O)/C2=N\Nc1ccccc1[N+](=O)[O-]
inactive: 786-0 54.6 µM | EKVX > 100 µM | HOP-92 27 µM | KM12 > 100 µM | MDA-MB-435 > 100 µM | NCI-H23 40.5 µM | NCI-H522 > 100 µM | OVCAR-3 > 100 µM | RPMI-8226 > 100 µM | RXF 393 > 100 µM | SF-295 64.7 µM | SK-MEL-28 > 100 µM | SK-MEL-5 > 100 µM | SNB-19 > 100 µM | SNB-75 > 100 µM | SW-620 > 100 µM | T47D > 100 µM | UACC-62 > 100 µM

Cc1ccc(C2(N3CCOCC3)OC(C)(C)c3cccc4cccc2c34)cc1 (stereo not given)
inactive: 786-0 17.3 µM | EKVX 13 µM | HOP-92 11.9 µM | HT-29 15.5 µM | KM12 21.1 µM | MDA-MB-435 16.9 µM | NCI-H23 17.7 µM | NCI-H522 15.8 µM | OVCAR-3 16 µM | OVCAR-8 16.9 µM | RPMI-8226 16.2 µM | RXF 393 15.3 µM | SF-295 16.9 µM | SK-MEL-5 18.6 µM | SNB-19 17.6 µM | SNB-75 15.4 µM | SW-620 18.2 µM | T47D 21.7 µM | UACC-62 13.6 µM

O=c1[nH]c2ccc(Cl)cc2o1
inactive: 786-0 > 100 µM | EKVX 26.7 µM | HOP-92 17.5 µM | HT-29 > 100 µM | KM12 > 100 µM | MDA-MB-435 > 100 µM | NCI-H23 > 100 µM | NCI-H522 96.4 µM | OVCAR-3 > 100 µM | OVCAR-8 > 100 µM | RPMI-8226 > 100 µM | RXF 393 > 100 µM | SF-295 > 100 µM | SK-MEL-5 > 100 µM | SNB-19 > 100 µM | SNB-75 > 100 µM | SW-620 > 100 µM | T47D > 100 µM | UACC-62 > 100 µM

O=C1NC(=O)C(C(c2ccc(Cl)cc2)C2C(=O)NC(=O)NC2=O)C(=O)N1.c1ccncc1
inactive: 786-0 > 100 µM | EKVX > 100 µM | HOP-92 > 100 µM | HT-29 > 100 µM | KM12 > 100 µM | MDA-MB-435 > 100 µM | NCI-H23 > 100 µM | NCI-H522 > 100 µM | OVCAR-3 > 100 µM | OVCAR-8 > 100 µM | RPMI-8226 > 100 µM | RXF 393 58.9 µM | SF-295 > 100 µM | SK-MEL-28 > 100 µM | SK-MEL-5 > 100 µM | SNB-19 > 100 µM | SW-620 > 100 µM | T47D > 100 µM | UACC-62 > 100 µM

OC(CC1CCCCN1)c1ccc2c(c1)oc1ccccc12 (stereo not given)
inactive: 786-0 > 100 µM | EKVX 49 µM | HOP-92 48.3 µM | HT-29 28.2 µM | KM12 > 100 µM | MDA-MB-435 42.7 µM | NCI-H23 > 100 µM | NCI-H522 79.8 µM | OVCAR-3 > 100 µM | OVCAR-8 84.1 µM | RPMI-8226 46.1 µM | RXF 393 57.3 µM | SF-295 99.1 µM | SK-MEL-28 34 µM | SK-MEL-5 17.8 µM | SNB-19 > 100 µM | SNB-75 39.6 µM | SW-620 > 100 µM | T47D > 100 µM | UACC-62 22.6 µM

COC(=N)C12C(N)=NC(OC)(OC)C1(C#N)C21C(=O)N(c2ccccc2)N=C1C (stereo not given)
inactive: 786-0 > 100 µM | EKVX > 100 µM | HOP-92 > 100 µM | HT-29 > 100 µM | KM12 > 100 µM | MDA-MB-435 > 100 µM | NCI-H23 > 100 µM | NCI-H522 > 100 µM | OVCAR-3 > 100 µM | OVCAR-8 > 100 µM | RPMI-8226 > 100 µM | RXF 393 > 100 µM | SF-295 > 100 µM | SK-MEL-28 > 100 µM | SNB-19 > 100 µM | SNB-75 > 100 µM | SW-620 > 100 µM | T47D > 100 µM | UACC-62 > 100 µM
